Assay results reported in paper PMC12477080, “Polychlorinated biphenyls (PCBs) interact with drug metabolism in vivo” (Archives of Toxicology, 2025).

Key:
[1] = system: CYP2B6; experiment: CYP phenotyping cocktail clinical study: efavirenz/8-OH-efavirenz metabolic ratio and its association with PCB plasma levels; conditions: linear regression of MR AUC0–8 h 8-OH-efavirenz/efavirenz (CYP2B6 activity) on PCB plasma concentration
Experimental: (§1) The participants were ascertained not to have any acute disease by medical history, physical examination, laboratory screening, including hematological and biochemical blood tests, and a 12-lead electrocardiogram. […] The demographic data of the subjects are summarized in Table 1 in the supplemental data. At the enrollment visit, 2 blood samples (9 ml each) were collected into ethylenediaminetetraacetic acid (EDTA)-containing tubes taken from each subject for analyzing the plasma concentrations of PCB congeners and for pharmacogenetic analysis.
(§2) Participants stayed fasted from the evening before until 3 h after drug administration. After that, a meal was provided. Water and juice were permitted but alcoholic and caffeinated beverages were not allowed from the evening before drug administration until the last blood sample was taken on the next day. Venous blood samples (9 ml each) were collected through an intravenous catheter immediately before and 0.25, 0.5, 0.75, 1, 1.5, 2, 2.5, 3, 4, 5, 6, 7, 8, and 24 h after drug administration. Blood was drawn into EDTA-coated tubes, centrifuged at 1500 g for 10 min at 4 °C, and plasma samples were subsequently stored at − 80 °C until further analysis. After completely voiding the bladder immediately before drug administration, the participants collected urine from 0 to 24 h after drug administration. After weighing the collected urine, a 10 ml aliquot of each fraction was taken.
(§3) Commercially sourced standards and internal standards were used for quantification (see Supplemental Materials). In brief, 20 µl of the plasma samples were protein-precipitated with 80 µl methanol containing all internal standards or were treated for 16 h at 37 °C with 2 µl β-glucuronidase (1,000,000 Units) for deconjugation before protein precipitation with 78 µl methanol containing internal standards. Samples were centrifuged for 20 min, at 4 °C and 17,000 × g, and 40 µl of the supernatants were diluted with 40 µl LC–MS grade water, centrifuged again for 5 min at 4 °C and 17,000 × g and 50 µl supernatant were transferred to LC–MS vials 5 µl of the samples were injected into the LC–MS system.
(§4) An Agilent 1290 Infinity II UHPLC coupled with a SCIEX QTRAP6500 + triple quadrupole mass spectrometer was used. Chromatographic separation was achieved on an Agilent Poroshell 120 EC-C18 (1.9 µm, 2.1 × 50 mm) column with A: 0.1% formic acid in water and B: methanol with a flow rate of 0.7 ml/min and a total run time of 8.5 min. Analytes were eluted using a gradient program. The following gradient steps represent gradual changes in % B over time: 5% B from 0 to 0.2 min, 30% B at 2 min, 34% B at 4.8 min, 95% B at 6.5 min, 95% B at 7.5 min and re-equilibrating to 5% B at 7.7 min and 5%B till 8.5 min. A representative chromatogram is shown in supplemental Fig. 2. The scheduled MRM mode was applied for analyte detection in both positive and negative ESI modes (Supplementary Table 4). Calibration curves were constructed with linear regression using weighted (1/x^2) models (detailed information in supplemental methods).
(§5) Partial areas under the plasma concentration–time curves from 0 to 3 h (AUC0–3 h), from 0 to 4 h (AUC0–4 h), and from 0 to 8 h (AUC0–8 h) were calculated based on measured concentrations by the linear trapezoidal rule without extrapolation. […] Metabolic ratios (MR) were calculated by dividing the partial AUC of the metabolite by the respective partial AUC of the parent drug. The MRs were used as biomarkers for the individual CYP activities of the study subjects.

[2] = system: CYP2C9; experiment: CYP phenotyping cocktail clinical study: torsemide/OH-torsemide metabolic ratio and its association with PCB plasma levels; conditions: linear regression of MR AUC0–8 h OH-torsemide/torsemide (CYP2C9 activity) on PCB plasma concentration
Experimental: as §1, §2, §3, §4, §5

[3] = target: T1, Human CYP1A2 (Homo sapiens, UniProt P05177); experiment: In vitro metabolism by CYP1A2 Supersomes; format: in vitro ADME; conditions: 10 µM substrate, 50 pmol/mL CYP1A2 supersomes, 2 mM NADPH; 1 h (phenacetin), 1 and 4 h (PCB118)
T1 construct: purchased; host or cells: insect cells
T1 sequence (P05177 2-516 limits assumed): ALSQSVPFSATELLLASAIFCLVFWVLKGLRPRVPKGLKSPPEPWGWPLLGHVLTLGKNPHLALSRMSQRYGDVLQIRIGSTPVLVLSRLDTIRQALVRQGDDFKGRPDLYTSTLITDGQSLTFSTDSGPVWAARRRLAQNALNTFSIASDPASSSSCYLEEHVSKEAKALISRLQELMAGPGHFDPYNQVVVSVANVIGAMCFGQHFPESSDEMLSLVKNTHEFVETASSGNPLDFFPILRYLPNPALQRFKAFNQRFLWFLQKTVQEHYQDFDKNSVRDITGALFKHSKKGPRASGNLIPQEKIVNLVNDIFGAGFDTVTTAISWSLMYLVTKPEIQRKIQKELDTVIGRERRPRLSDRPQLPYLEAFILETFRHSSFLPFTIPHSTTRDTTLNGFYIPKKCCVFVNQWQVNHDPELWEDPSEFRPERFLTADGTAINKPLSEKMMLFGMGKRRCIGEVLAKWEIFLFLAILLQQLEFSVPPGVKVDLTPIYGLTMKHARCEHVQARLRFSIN
Experimental: To investigate the metabolism of PCB118 by CYP1A2, incubation assays were conducted using CYP1A2 supersomes in a total reaction volume of 100 µL. Reaction mixtures were assembled on ice. […] Reactions were initiated by the addition of CYP1A2 supersomes.
To assess potential non-enzymatic transformations and confirm NADPH-dependent metabolism, control incubations were performed under the following conditions: buffer and enzyme only (no-substrate control), substrate, buffer, and NADPH without enzyme (no-enzyme control), and substrate, buffer, and enzyme without NADPH (no-NADPH control). Each experimental condition was conducted in triplicate, while control conditions were performed as single replicates.
The resulting supernatants (100 µL) were transferred to LC–MS vials, yielding samples with 80% methanol content for analysis. For the detection of hydroxylated PCB metabolites, reactions were stopped by adding 500 µL methanol, followed by the addition of 50 µL of an internal standard mix (10 ng/mL). Samples were vortexed for 1 min and centrifuged at 4,500 rpm for 10 min. The resulting supernatants were transferred to glass LC vials and evaporated under a nitrogen stream at 45 °C until approximately 50 µL remained. Samples were then reconstituted in 100 µL of 0.1 M ammonium acetate buffer (pH 5.3) before transfer to inserts for LC–MS analysis.
To determine whether PCB118 serves as a substrate for CYP1A2 and could act as a competitive inhibitor for other CYP1A2 substrates, we conducted in vitro metabolism experiments. […] In parallel, CYP1A2-mediated metabolism of PCB118 was assessed. […] The identity of 4-OH-CB107 was verified by comparison with an authentic reference standard, showing identical retention time and spectral characteristics (supplemental Fig. 1).

## Clc1ccc(-c2cc(Cl)c(Cl)cc2Cl)cc1Cl [PCB118]
[1]
  t value: 1,020
  β (standardized regression coefficient): 0,255
[1]; PM excl
  t value: 0,839
  β (standardized regression coefficient): 0,227
[2]
  t value: 1,339
  β (standardized regression coefficient): 0,301
[2]; PM excl
  t value: 1,228
  β (standardized regression coefficient): 0,286
[3]
  CYP1A2-mediated metabolism of the substrate: catalyzed the hydroxylation of PCB118, leading to the formation of 4-OH-CB107
